For five compounds, inhibition results are on record in EP0968998A1, “Cosmetic compositions, ceramide analogues with anti-elastase activity and process for their preparation” (ELF ATOCHEM S.A., priority 1998, dated 2000).

For the experiment, the target named is T1, élastase de leucocytes humains (Homo sapiens, UniProt P08246).
T1 construct: purchased Elastin Products Co. SE 563; host or cells: human leukocytes, as the enzyme's name says
T1 sequence (P08246 30-267): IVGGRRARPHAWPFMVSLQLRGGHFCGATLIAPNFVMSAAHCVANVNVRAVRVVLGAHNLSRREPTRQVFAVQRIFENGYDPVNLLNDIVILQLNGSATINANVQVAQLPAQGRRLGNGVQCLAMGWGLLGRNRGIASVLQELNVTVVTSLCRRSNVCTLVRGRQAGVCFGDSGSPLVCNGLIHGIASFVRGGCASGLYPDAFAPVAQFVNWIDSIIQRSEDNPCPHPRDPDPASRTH
Briefly: Anti-elastase activity: release of p-nitroaniline from N-succinyl-(Ala)3-p-nitroanilide, spectrophotometry at 410 nm. It is filed as biochemical. To be noted: pH 8, 37°C, pH8, 5 min preincubation, substrate 250 µM, read-out: % I (%); for inhibition at 250 µM: Concentration 250 µM; for inhibition at 500 µM: Concentration 500 µM. The text has this: Les exemples qui suivent permettent d'illustrer l'invention. Dans ces exemples, on utilise les méthodes d'analyse suivantes : - Spectrographie infrarouge (IR) Les spectres sont réalisés au moyen d'un appareil PERKIN ELMER 1760 IRTF, en dispersion dans KBr à 1 %. Les valeurs sont exprimées en nombre d'onde par centimètre. - Résonance magnétique nucléaire (RMN) Les spectres sont réalisés au moyen d'un appareil BRUCKER DRX 500, à 500 MHz (^1H) et 125 MHz (^13C) dans le DMSO-d6. La calibration de l'appareil est effectuée au moyen de DMSO. Les déplacements chimiques sont exprimés en ppm. L'aspect des signaux est noté : singulet (s), doublet (d), triplet (t), quadruplet (q), multiplet (m), quintuplet (*5) et couplage AB (AB). - Mesure de l'activité anti-élastase L'activité anti-élastase est mesurée selon la méthode qui consiste à faire réagir l'élastase de leucocytes humains (référence SE 563; Elastin Products Co.; Owensville, MO, USA) avec le N-succinyl-(Ala)3-p-nitroanilide (réf. S4760; Sigma) et mesurer la libération de p-nitroaniline. On utilise le N-succinyl-(Ala)3-p-nitroanilide en solution dans le tétrahydrofurane et une solution d'élastase à 100 mg/ml dans un mélange de glycérol et de tampon acétate de sodium (50/50; v/v), pH5. L'activité de l'enzyme est mesurée à 37°C dans 100 mM de tampon Tris-HCI, pH8 contenant 0,01 % de Triton X-100 (volume/volume) et 0,02 % d'azide de sodium (poids/volume). Le céramide à tester, solubilisé dans le tétrahydrofurane (concentration en THF = 0,5 % en volume) est préincubé en présence de l'enzyme (0,05 mg/ml) dans le tampon pendant 5 minutes à 37°C. On ajoute le N-succinyl-(Ala)3-p-nitroanilide (concentration finale : 250 µM) et on mesure la libération de la p-nitroaniline dans une cuve en quartz par spectrophotométrie à 410 nm. La capacité inhibitrice du céramide est exprimée en pourcentage d'inhibition (% I) selon la relation : %I = (1 -(Vi)/(Vo))×100 [formula] dans laquelle Vi et Vo sont les vitesses d'apparition de la p-nitroaniline en présence et en absence d'inhibiteur respectivement. - Mesure de l'amélioration de la barrière cutanée a) mesure de la Perte Insensible en Eau (PIE) La mesure de la PIE permet de quantifier la très faible quantité d'eau qui diffuse passivement à travers le stratum corneum. Ce paramètre représente un très bon index de la fonction barrière du stratum corneum. Cette méthode est surtout utilisée pour contrôler l'efficacité de formules cosmétiques qui, contenant certains types de lipides sont capables de diminuer la PIE et, en conséquence, d'empêcher la déshydratation du stratum corneum. La sonde est laissée en contact de la peau pendant 2 minutes environ de façon à atteindre une position d'équilibre. PIE = D'(dP)/(dx)(gradient de pression de vapeur) [formula] Les valeurs sont exprimées en g/m^2/heure et permettent de calculer un delta de PIE = PIE (peau traitée) - PIE (peau témoin). L'appareil utilisé est un Evaporimètre EPI de Servomed. Les mesures sont effectuées sur deux groupes de 15 volontaires sains ayant une peau sèche, avant l'application du produit (t=0) et après l'application (t=0,5 heure, 1 heure, 3 heures et 6 heures) sur la face interne des deux avant-bras. L'analogue de céramide selon l'invention ou le céramide témoin est incorporé dans une crème ayant la composition suivante (en % en poids) : […]

Consider `CCCCCCCCCCCCCCCC(=O)NC(CO)COC(=O)CCCCCCCCCCCCCCC` (stereo not shown) [Exemple 1, 1-palmitoyl-2-palmitoylamino-1,3-propanediol], for which the inhibition at 250 µM was 55% and the inhibition at 500 µM turned out to be 66%.

As for `CCCCCCCCCCCCCCCC(=O)NC(C)(CO)COC(=O)CCCCCCCCCCCCCCC` (stereo not shown) [Exemple 2, 1-palmitoyl-2-méthyl-2-palmitoylamino-1,3-propanediol], the inhibition at 250 µM came out at 8% and the inhibition at 500 µM was found to be 57%.

For the compound `CCCCCCCCCCCCCCCC(=O)NC(CC)(CO)COC(=O)CCCCCCCCCCCCCCC` (stereo not shown) [Exemple 3, 1-palmitoyl-2-éthyl-2-palmitoylamino-1,3-propanediol], the inhibition at 250 µM came to 33% and the inhibition at 500 µM worked out at 43%.

On to `CCCCCCCCCCCCC/C=C/[C@@H](O)[C@H](CO)NC(=O)CCCCCCCCCCCCCCC` [Référence (a), N-palmitoyl-D-érythro-1,3-dihydroxy-2-amino-4-trans octadécène, reference compound], for which the inhibition at 250 µM came to 81% and the inhibition at 500 µM was 100%.

For `CCCCCCCCCCCCCCCCCC(=O)N[C@@H](CO)[C@H](O)[C@H](O)CCCCCCCCCCCCCC` [Référence (b), N-stéaroyl-phytosphingosine, reference compound], the inhibition at 250 µM was determined as 44% and the inhibition at 500 µM is 50%.
